“Also recorded” adds a separate entry of the source. Like-named read-outs stand apart in the source and are kept apart here. Square brackets hold non-standard residues; d marks the D form. Peptide text beside a SMILES is read from it. Nle = CCCC[C@H](N)C(=O)O

For one assay, the target named is T1, papain (Carica papaya, UniProt P00784).
T1 construct: purchased Sigma P3125; host or cells: papaya latex
T1 sequence (P00784 134-345): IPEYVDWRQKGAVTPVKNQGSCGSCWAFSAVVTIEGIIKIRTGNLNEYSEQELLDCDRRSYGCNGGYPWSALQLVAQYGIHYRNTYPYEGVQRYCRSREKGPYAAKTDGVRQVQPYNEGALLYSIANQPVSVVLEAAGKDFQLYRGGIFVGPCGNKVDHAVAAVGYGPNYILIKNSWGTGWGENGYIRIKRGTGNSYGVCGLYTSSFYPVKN
Kind of assay: Selectivity: papain protease assay (casein substrate). To be noted: Table II; read-out: Inhibitory Activity of Thiol-Acrylates, Papain (IC50). The class given is biochemical. On the procedure:
(§1) Calpain I was assayed as described (α-mercaptoacrylic acid). Ten to 20 ng papain (papaya latex, Sigma, P3125), 1.25 μg trypsin (bovine pancreas, Sigma, T8003), and 5 μg thermolysin (Bacillus thermoproteolyticus, Sigma, P1512) were assayed using 0.5 mg/mL casein as substrate in the microplate format (250 μL reaction volume), essentially as described by Buroker-Kilgore M., Wang K. K. W., Anal Biochem 1993;208:387-392. Inhibition of these proteases are presented as IC50.

In assay [1] the test system is Fetal rat cortical cell cultures. Kind of assay: Assay of Lactate Dehydrogenase (LDH): NMDA-induced LDH release. To be noted: 500 μM NMDA; 200 μM calpain inhibiting compound; FIG. II. The class given is cell-based. How it is done:
Seventeen-day-old cultures were pretreated with 200 μM calpain inhibiting compound (when added) for 1 hour before treatment of 500 μM N-methyl-D-aspartate (NMDA) for 30 minutes (in the absence or the presence of the compound).
For orientation: Release of lactate dehydrogenase indicates damage to the cell membrane.

Assay [2] concerns the target T2, calpain I (Homo sapiens, UniProt P07384).
T2 sequence (P07384 1-714): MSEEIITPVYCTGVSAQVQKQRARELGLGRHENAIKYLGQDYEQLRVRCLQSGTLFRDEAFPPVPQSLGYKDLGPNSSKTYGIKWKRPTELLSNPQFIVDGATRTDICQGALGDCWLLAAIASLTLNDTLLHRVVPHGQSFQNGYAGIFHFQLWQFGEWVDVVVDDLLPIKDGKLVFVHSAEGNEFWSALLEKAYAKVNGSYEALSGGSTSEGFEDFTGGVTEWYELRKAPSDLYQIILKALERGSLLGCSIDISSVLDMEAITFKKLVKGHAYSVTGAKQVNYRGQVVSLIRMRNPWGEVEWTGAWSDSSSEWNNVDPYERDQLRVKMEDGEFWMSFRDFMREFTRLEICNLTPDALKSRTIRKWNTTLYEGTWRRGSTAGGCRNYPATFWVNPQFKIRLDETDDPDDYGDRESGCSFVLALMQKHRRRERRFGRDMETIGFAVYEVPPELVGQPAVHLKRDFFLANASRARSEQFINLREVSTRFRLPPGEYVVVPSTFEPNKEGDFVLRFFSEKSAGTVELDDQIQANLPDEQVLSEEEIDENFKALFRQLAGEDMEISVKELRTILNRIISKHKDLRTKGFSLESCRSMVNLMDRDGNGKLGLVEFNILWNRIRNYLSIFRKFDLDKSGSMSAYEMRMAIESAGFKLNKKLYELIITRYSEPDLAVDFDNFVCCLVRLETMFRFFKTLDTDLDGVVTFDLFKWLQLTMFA
T2 sequence (P04632 1-268 partner): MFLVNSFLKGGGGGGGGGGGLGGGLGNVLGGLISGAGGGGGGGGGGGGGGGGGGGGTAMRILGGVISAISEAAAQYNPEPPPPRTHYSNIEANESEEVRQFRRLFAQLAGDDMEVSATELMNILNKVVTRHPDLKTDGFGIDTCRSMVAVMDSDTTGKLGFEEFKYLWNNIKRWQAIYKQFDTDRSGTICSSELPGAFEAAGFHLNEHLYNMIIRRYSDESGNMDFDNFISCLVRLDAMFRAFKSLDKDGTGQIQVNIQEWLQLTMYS
Briefly: Assay of Calpain Activity (casein substrate, microplate, Coomassie blue). In kind it is biochemical. The arrangement: Calpain I was purified from human erythrocytes; from tissue; host or cells: human erythrocytes. How it is done: In 250 μL of reaction mixture, substrate casein (0.5 mg/mL) was incubated with 0.01 unit (80-120 ng) calpain I, 20 mM dithiothreitol (DTT), 50 mM Tris-HCl (pH 7.4 at 25° C.), and 4 mM CaCl2 at 25° C. for 60 minutes. Two 100-μL aliquots were taken for Coomassie blue binding analysis to quantify the remaining casein.
Calpain I was assayed as described (α-mercaptoacrylic acid). […] Inhibition of these proteases are presented as IC50.

Assay [3] has as its system spectrin breakdown in rat cortical cell cultures. Briefly: Spectrin Breakdown Measurement (immunoblot). The class given is cell-based. As to conditions: NMDA-treated cortical cells, 4-hour post-NMDA. How it is done:
Rat cortical cell cultures were treated with NMDA in the absence or presence of calpain inhibiting compounds as described in "Assay of LDH" above. At the end of the 4-hour post-NMDA incubation, cells were lysed with 300 μL buffer containing 20 mM Tris-HCL (pH 7.4 at 4° C.), 1% SDS, 5 mM EGTA, 5 mM EDTA, 1 mM DTT, and various protease inhibitors. Total cellular protein was precipitated by 100 μL of 100% trichloroacetic acid. The samples were centrifuged and the pelleted protein solubilized with 50 μl of 3M Tris base. […] The blots were then probed with rabbit antibrain spectrin antibody (primary antibody) followed by alkaline phosphatase-conjugated goat antirabbit immunoglobulin G antibody (secondary antibody). […] The SBP were quantified by densitometry (BioRad Model 620).
(Immunoblotting shows a protein as a band on a membrane.)

The next assay has as its target T3, trypsin (Bos taurus, UniProt P00760).
T3 construct: purchased Sigma T8003; host or cells: bovine pancreas
T3 sequence (P00760 24-246): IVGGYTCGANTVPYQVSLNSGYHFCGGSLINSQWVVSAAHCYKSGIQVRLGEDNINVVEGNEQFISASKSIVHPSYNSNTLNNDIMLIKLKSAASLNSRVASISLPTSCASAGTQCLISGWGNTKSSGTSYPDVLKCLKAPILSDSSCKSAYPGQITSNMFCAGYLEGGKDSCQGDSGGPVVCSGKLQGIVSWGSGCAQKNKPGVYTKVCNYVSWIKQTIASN
Briefly: Selectivity: trypsin protease assay (casein substrate). In kind it is biochemical, bovine. To be noted: Table II; read-out: Inhibitory Activity of Thiol-Acrylates, Trypsin (IC50). How it is done:
as §1

In assay [4] the target is T2, calpain I. Briefly: Casein Breakdown by calpain I (SDS-PAGE). In kind it is biochemical. The arrangement: casein substrate. To be noted: 30 μM compound, 0.8 nM calpain I, all time points up to 120 minutes. How it is done:
Casein (15 μM) was incubated with 0.8 nM calpain I, 15 mM DTT, 45 mM Tris-HCl (pH 7.4 at 25° C.) and in the presence or the absence of compound Example 3 (30 μM) for up to 120 minutes. Aliquots of the samples were taken at several time points and subjected to SDS-polyacrylamide gel electrophoresis (SDS-PAGE) as described by Laemmli U. K., Nature 1970;[…]. Casein and its fragments were visualized by Coomassie G250 staining of the gel.

The target of a further assay is T4, thermolysin (Bacillus thermoproteolyticus, UniProt P00800).
T4 construct: purchased Sigma P1512; host or cells: Bacillus thermoproteolyticus
Kind of assay: Selectivity: thermolysin protease assay (casein substrate). The class given is biochemical. How it is done:
as §1

For assay [5], the target named is T2, calpain I. Briefly: Calpain inhibition after treatment with rabbit liver esterase. The class given is biochemical. The arrangement: casein substrate. As to conditions: FIG. I. How it is done: Calpain I was purified from human erythrocytes as described by Wang K. K. W., Roufogalis B. D., Villalobo A., Arch Biochem Biophys 1988;267:317-327.Calpain activity was assayed in a 96-well microplate format (Buroker-Kilgore M., Wang K. K. W., Anal Biochem 1993;208:387-392). In 250 μL of reaction mixture, substrate casein (0.5 mg/mL) was incubated with 0.01 unit (80-120 ng) calpain I, 20 mM dithiothreitol (DTT), 50 mM Tris-HCl (pH 7.4 at 25° C.), and 4 mM CaCl2 at 25° C. for 60 minutes. Two 100-μL aliquots were taken for Coomassie blue binding analysis to quantify the remaining casein.
Various concentrations of the compound of Example 6 (250 nM to 2.5 mM) were pretreated with 0.2 unit rabbit liver esterase (Sigma E9636) in 50 μL containing 50 mM Tris-HCl (pH 7.4 at 25° C.), 5 mM DTT at 25° C. for 60 minutes. The mixture was then tested for calpain inhibition with the calpain assay described above.
The esterase presumably hydrolyzed the only ester bond in the molecule, producing the free acid compound which is identical to the compound of Example 3.

For the next assay, the system named is myocardiac infraction. To be noted: dogs, coronary reperfusion after acute myocardiac infraction; cited from earlier work.
The test system of a further assay is restenosis. To be noted: in vivo; cited from earlier work.
The next assay deals with smooth muscle cells. To be noted: cited from earlier work.
[6] abbreviates: Table I, 4 mM CaCl2, pH 7.4, 25° C., 60 minutes, read-out: Inhibitory Activity Against Human Calpain I IC50.

T4 sequence (P00800 233-548): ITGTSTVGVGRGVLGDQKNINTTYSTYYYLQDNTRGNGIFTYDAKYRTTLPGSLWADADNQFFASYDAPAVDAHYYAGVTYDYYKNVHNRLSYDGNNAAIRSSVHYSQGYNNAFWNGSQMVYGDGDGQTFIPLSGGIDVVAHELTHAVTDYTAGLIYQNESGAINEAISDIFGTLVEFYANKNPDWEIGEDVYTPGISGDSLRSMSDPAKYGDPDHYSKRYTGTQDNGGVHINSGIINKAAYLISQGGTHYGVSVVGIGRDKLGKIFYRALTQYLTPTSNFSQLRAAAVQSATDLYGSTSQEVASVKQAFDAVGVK

As usually defined, the IC50 is the concentration that inhibits the measured activity by half. As to `O=C(O)/C(S)=C/c1ccc2ccccc2c1` [Example 3, (Z)-2-Propenoic Acid, 2-mercapto-3-(7-naphthalenyl)], the IC50 at papain was over 200 µM; on calpain I [2] (setting [6]), 2600 nM; on calpain I [2] (Table II (selectivity), read-out: Inhibitory Activity of Thiol-Acrylates, Calpain (IC50)) it was 2400 nM; on trypsin, over 200 µM; at thermolysin it was 394 µM. Also, in assay [1], the “block of NMDA-induced LDH release (in words)” value was “partially blocked”. Moreover, the “spectrin breakdown product (SBP) formation, 150 kDa and 145 kDa (in words)” value in [3] is reported as “partially blocked SBP formation”. Also, the “degradation of casein by calpain I (in words)” value at calpain I [4] is “almost completely blocked the degradation of casein at all time points”.

With `CCOC(=O)/C(S)=C/c1ccc2ccccc2c1` [Example 6, Ethyl 2-Propenoic Acid, (Z)-2-mercapto-3-(2-naphthalenyl)-, Ethyl Ester], the “inhibition of calpain upon preincubation with esterase (in words)” value on calpain I [5] (0.2 unit rabbit liver esterase, 60 minutes) was “shows activity only after it is hydrolyzed by cellular esterase; also recorded: strong inhibition on calpain”. The “inhibition of calpain I without esterase (in words)” value against calpain I [5] (as high as 500 μM, no esterase) is “did not inhibit calpain I”. Also, at calpain I [2] (setting [6]), the IC50 is over 500000 nM.

Take `CC(C)CCNC(=O)[C@H](CC(C)C)NC(=O)[C@H]1O[C@@H]1C(=O)O` [Example E64c]: in the assay on myocardiac infraction, the size of infract entry is “significantly reduce the size of infract”.

`CCCC[C@@H](C=O)NC(=O)[C@H](CC(C)C)NC(=O)[C@H](CC(C)C)NC(C)=O` [calpain inhibitor I] (Ac-Leu-Leu-[Nle]-aldehyde): the inhibition of restenosis entry with restenosis is on record as “inhibit restenosis”. Moreover, the “proliferation and migration of smooth muscle cells to the neoinitimal layer” value in the assay on smooth muscle cells was “controlling proliferation and migration of smooth muscle cells”.

Values taken from patent US5760048A, “Alpha-mercaptoacrylic acid derivatives having calpain inhibitory activity” (Warner-Lambert Company, priority 1996, dated 1998).
